According to patent US10995068B2, “Synthetic sphingolipid-like molecules, drugs, methods of their synthesis and methods of treatment” (The Regents of the University of California, priority 2015, dated 2021):

Columns and labels:
[1] = system: non-transformed and cancer cells; assay: Cytosolic vacuolation by SH-BC-893; assay type: cell-based; settings: both non-transformed and cancer cells
Description: Certain embodiments of the invention are directed to azacyclic constrained sphingolipid-like molecules to inhibit macropinocytosis and autophagy, consistent with the bioenergetic mechanism. This aspect of the mechanism was unexpected because it was initially believed in that these molecules would only reduce nutrient transporter surface expression. However, considering that Ras activation increases macropinocytosis and autophagy, and the finding that SH-BC-893 was very effective against neoplastic cells with activated Ras led to the hypothesis that azacyclic constrained sphingolipid-like molecules might also affect macropinocytosis and autophagy pathways. […]
Light Microscopy: Brightfield and epifluorescence microscopy were conducted using a Nikon TE2000-S fluorescence microscope; confocal microscopy was performed on a Zeiss LSM780 confocal microscope or Nikon Eclipse Ti spinning disk confocal microscope. […] Co-localization was determined using JACoP plugin in ImageJ software. Macropinocytosis was measured after 16 h incubation in serum-free DMEM. p53−/−; LSL-K-RasG12D MEFs before (LSL) or after (KRasG12D) introduction of Cre were serum starved for 16 h and then treated with macropinocytosis inhibitor 5-(N-ethyl-N-isopropyl) amiloride (EIPA, 75 μM) for 1 h or SH-BC-893 for 6 h. […]

PC3 cells = assay: Phosphorylation in intact cells by UPLC-MS/MS, PC3; assay type: in vitro ADME, human; settings: 10 μM, 16 h incubation, percent of total compound recovered by UPLC-MS/MS
Protocol: Mass spectrometric quantification: One million PC3 or 5 million SW620 cells in one well of a 6 well plate are treated with 10 μM FTY720 or 5 for 16 h. Media (100 μl) is removed from the well and combined with 100 μl of acetonitrile. Cells are collected by scraping, pelleted, and re-suspended in 100 μl of HPLC-grade water followed by the addition of 100 μl acetonitrile. Seventy-five nanograms of the compounds not being quantified (FTY720 and FTY720-P for analysis of the phosphorylation of 5, or 5 and 5-P for the analysis of FTY720/FYT720-P) is added to serve as an internal standard to allow correction for loss of compound during sample preparation. […] Insoluble material is again removed by centrifugation and the supernatant analyzed for compound content. Twenty microliters of this de-proteinated sample is analyzed by UPLC-MS/MS (Waters Micromass Quattro Premier XE) equipped with a C18 reversed phase column (Waters) using an acetonitrile (+0.2% acetic acid) gradient elution. […] The cone voltages are 30V for FTY720 and 5, and 20V for FTY720-P and 5-P. A standard curve is generated using pure compounds to allow for quantification; standard curves were linear from 50-1000 ng/ml with an R^2 of 0.98 or greater. […]

In the case of CCCCCCCCc1ccc([C@H]2CCN[C@@H]2CO)cc1.Cl [Compound 5, (2S,3R)-2-(hydroxymethyl)-3-(4-octylphenyl)Pyrrolidinium chloride], the cytosolic vacuolation [1] is reported as “induced equally striking cytosolic vacuolation” and the “efficiency of phosphorylation in intact cells” value (PC3 cells) is reported as “phosphorylated slightly more efficiently than FTY720”.
